Laboratory results from patent US20260274794A1, “COMPOUNDS, COMPOSITIONS, AND METHOD OF INHIBITING TAU PROTEIN AND ALPHASYNUCLEIN AGGREGATION” (Purdue Research Foundation, priority 2023, published 2026).

Assays:
Assay type in all cases: biochemical
[1] = target: T1, α-synuclein (α-syn) (Homo sapiens, UniProt P37840); test: Thioflavin T (ThT) fluorescence assay of α-syn fibril formation; conditions: compound 100 μM; ThT fluorescence intensity at plateau phase, control = 100%
T1 construct: purchased rPeptide, LLC (Watkinsville, GA)
Method: (§1) ThT fluorescence is routinely established assay to follow the kinetics of α-syn fibril formation with different drug candidate treatments. Compounds were first tested at a final of concentration of 100 μM and α-syn and 2N4R tau were prepared at 2 μM and 6 μM, respectively. Compounds with highest anti-fibrillary activity were tested at 3.125, 6.25, 12.5, 25, 50, and 100 μM to obtain dose-response curves.
For the α-syn ThT assay, ThT was used at a final concentration of 20 μM. α-Syn was dissolved in 20 mM Tris-HCl (pH 7.4) supplemented with 100 mM NaCl to a stock solution of 280 μM (1 mg/250 μL) prior to resuspension in ThT buffer to obtain a final concentration of 2 μM. Compounds and ThT were first added to the wells. The kinetics of fibril formation begin when the α-syn was solubilized in the ThT buffer (10 mM PBS buffer (pH 7.4), supplemented with 0.5 mM SDS and 300 mM NaCl) and added to a non-treated black 96 well microplate with a transparent flat bottom. Each well was filled with a maximum volume of 150 μL buffer with one 3 mm borosilicate bead. The background fluorescence signal consisted of ThT in buffer and 0.25% DMSO without α-syn. The excitation and emission wavelengths were set at 440 and 485 nm, respectively, with a Synergy HT multi-mode microplate reader (BioTek, Winooski, VT). Measurements were taken at 37° C. every 20 minutes over 50 hours of shaking prior to reading the plate. Samples were measured in three replicates and the experiments were repeated three times using different α-syn stock solutions. For each time point, the background fluorescence signal was subtracted. Arbitrary units of fluorescence were calculated from the mean values normalized against the maximum value in each completed assay. Arbitrarily, the maximum value (100%) for the fluorescence intensity was established for α-syn.
Compounds were tested at 100 μM with α-syn at 6 μM, resulting in a molar ratio of approximately 1:16 (protein:compound). The plateau phase of sigmoidal kinetics is of particular interest because it is the phase in which mature fibrils form and where aggregation and disaggregation are at equilibrium with each other; therefore, the fluorescence intensity between multiple compounds at the plateau phase can be compared to identify the compounds with the most promising anti-aggregation activity (Table 1, column α-syn ThT %). […] Compound 17 was the best representative of the 5-aminoindole series and moved to the tier-2 assays, even though the resulting ThT percentage of fluorescence intensity was 10% higher than the cut off. These compounds were then tested on tau 2N4R ThT fluorescence assays.

[2] = target: T2, tau isoform 2N4R (Homo sapiens, UniProt P10636); test: ThT fluorescence assay of tau isoform 2N4R fibril formation; conditions: compound 100 μM, tau 2N4R 6 μM
T2 construct: made in house; host or cells: E. coli BL21 (DE3), vector pRK172
T2 sequence (P10636 1-441 isoform P10636-8): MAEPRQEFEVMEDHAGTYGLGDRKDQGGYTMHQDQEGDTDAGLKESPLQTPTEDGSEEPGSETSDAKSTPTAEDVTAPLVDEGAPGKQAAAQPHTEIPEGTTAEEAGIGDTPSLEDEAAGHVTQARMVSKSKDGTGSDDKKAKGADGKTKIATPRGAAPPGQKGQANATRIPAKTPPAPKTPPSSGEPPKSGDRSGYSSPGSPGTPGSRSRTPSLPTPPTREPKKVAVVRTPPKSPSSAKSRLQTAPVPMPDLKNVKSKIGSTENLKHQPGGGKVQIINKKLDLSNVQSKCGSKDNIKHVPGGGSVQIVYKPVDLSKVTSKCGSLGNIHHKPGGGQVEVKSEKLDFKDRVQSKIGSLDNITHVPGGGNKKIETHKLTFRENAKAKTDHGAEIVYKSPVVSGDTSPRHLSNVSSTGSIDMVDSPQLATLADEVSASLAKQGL
Method: as §1
Concerning the non-phosphorylated tau (isoform 2N4R) kinetics of fibril formation, ThT was performed with the tau protein solution was diluted to a final concentration of 6 μM in PBS (pH 7.4) supplemented with 1.5 μM heparin, 20 μM ThT, 2.5 mM DTT, and 100 μM compound. Aliquots of the diluted protein solution (100 μL each) were pipetted into the wells of a 96-well plate, and a Teflon ball was added to each well. The plate was incubated at 37° C. with constant shaking at 1,000 rpm in a Tecan Stark plate reader. ThT fluorescence was measured every 15 min with excitation and emission wavelengths of 440 nm and 480 nm, and the data were plotted using GraphPad Prism.
Various structural analogs were first tested at a final concentration of 100 μM in the presence of tau 2N4R at 6 μM. Compounds 2, 4-8, and 17 were pre-selected with α-syn ThT assay prior to evaluation on the tau isoform 2N4R.

[3] = target: T2, tau isoform 2N4R; test: PICUP assay of tau isoform 2N4R oligomerization; conditions: compound 50 μM
Method: To force the oligomerization by cross-linking, α-syn (from Rpeptide, LLC) and tau isoform 2N4R were diluted in 10 mM phosphate buffer (pH 7.4) to reach a final concentration of 10 μM [27]. Different compounds were added to the protein solution at a final concentration of 50 μM, resulting in a molar ratio of 1:5. To confirm the gradual effect of the compounds on the inhibition of α-syn oligomerization, compounds were tested at final concentration of 3.125, 6.25, 12.5, 25, and 50 μM. The controls consisted of samples without light exposition, without Ru(bpy), and without compound (i.e., 0.125% DMSO). The cross-linking reaction was initiated by the addition of 2 μL of Ru(bpy) (300 μM final concentration) and 2 μL ammonium persulfate (6 mM final concentration). Samples were irradiated immediately. Light exposition was of 1 second duration for ca-syn and 3 second duration for tau isoform 2N4R, with a 53 W (120 V) incandescent lamp installed in a homemade dark-box. Each tube contained a final volume of 20 μL. After irradiation, 8.3 μL. of Lammeli loading buffer containing 15% β-mercaptoethanol was immediately added to the solution, followed by incubation at 95° C. for 10 minutes. The cross-linked samples were separated on a 16% SDS-Page gel and visualized by Coomassie blue staining.
One end point used to verify the propensity of misfolded protein in the drug discovery field is the inhibition of oligomer formation. The photo-induced cross-linking of unmodified proteins (PICUP) assay was used to investigate α-syn (60 μM) and tau isoform 2N4R (6 μM) oligomerization in the presence of eight amide compounds (2, 4, 5, 6, 7, 8, 13, and 17 at 50 μM, i.e., ~molar ratio 1:8 for tau). After being subjected to short light exposure, α-syn and tau were cross-linked and Coomassie-stained resolved as a higher molecular weight compared to control (0.125% DMSO). […] Compound 13 was used as a negative control for the α-syn PICUP.
PICUP assays were performed with different concentrations (50 μM, 25 μM, 12.5 μM, 6.25 μM, 3.125 μM; control=0.125% DMSO) for each lead compound.

Row | remaining activity at 100 µM [1] [%] | effect on tau isoform 2N4R fibril formation (ThT) [2] | tau isoform 2N4R oligomerization (PICUP crosslinking) [3] | α-Syn ThT% [1] [%] | SMILES
1 | 64 |  |  |  | O=C(Nc1cccc2[nH]ccc12)c1cccs1 [Compound 1]
2 | 43 |  |  |  | COc1cccc(C(=O)Nc2cccc3[nH]ccc23)c1 [Compound 3]
3 | ≤ 30 | good inhibitory effect |  |  | O=C(Nc1cccc2[nH]ccc12)c1ccc(Cl)cc1 [Compound 4, 4-chloro-N-(1H-indol-4-yl)benzamide]
4 | ≤ 30 | good inhibitory effect |  |  | O=C(Nc1cccc2[nH]ccc12)c1ccccc1Cl [Compound 5, 2-chloro-N-(1H-indol-4-yl)benzamide]
5 | ≤ 30 | weaker anti-fibrilization effect | strongest oligomer band |  | O=C(Nc1cccc2[nH]ccc12)c1ccc(C(F)(F)F)cc1 [Compound 6, N-(1H-indol-4-yl)-4-(rifluoromethyl)benzamide]
6 | ≤ 30 | good inhibitory effect |  |  | N#Cc1ccc(C(=O)Nc2cccc3[nH]ccc23)cc1 [Compound 7, 4-cyano-N-(1H-indol-4-yl)benzamide]
7 | 40.5 ± 2.3 |  |  |  | O=C(Nc1ccc2[nH]ccc2c1)c1cccs1 [Compound 9, N-(1H-indol-5-yl)thiophene-2-carboxamide]
8 | 102 ± 13.3 |  |  |  | O=C(Nc1ccc2[nH]ccc2c1)c1ccccc1 [Compound 10, N-(1H-indol-5-yl)benzamide]
9 | 48.6 ± 2.6 |  |  |  | COc1cccc(C(=O)Nc2ccc3[nH]ccc3c2)c1 [Compound 11, N-(1H-indol-5-yl)-3-methoxybenzamide]
10 | 67.5 ± 16.3 |  |  |  | O=C(Nc1ccc2[nH]ccc2c1)c1ccc(Cl)cc1 [Compound 12, 4-chloro-N-(1H-indol-5-yl)benzamide]
11 | 62.7 ± 4.1 |  |  |  | N#Cc1ccc(C(=O)Nc2ccc3[nH]ccc3c2)cc1 [Compound 15, 4-cyano-N-(1H-indol-5-yl)benzamide]
12 | 48.5 ± 1.7 |  |  |  | O=C(Nc1ccc2[nH]ccc2c1)c1ccc(F)cc1 [Compound 16, 4-fluoro-N-(1H-indol-5-yl)benzamide]
13 | 40 |  |  |  | Nc1cccc(C(=O)Nc2ccc3[nH]ccc3c2)c1 [Compound 17, 3-amino-(1H-indol-5-yl)benzamide]
14 | 69.4 |  |  | 69.4 ± 6.70 | O=C(Nc1ccc2c(c1)Cc1ccccc1-2)c1ccc(Cl)cc1 [Compound 18, 4-chloro-N-(9H-fluoren-2-yl)benzamide]
